Data on five molecules can be found in patent US5141627A, “Chelators whose affinity for calcium ion is increased by illumination” (The Regents of the University of California, priority 1989, dated 1992).

In one data set the test system is cells. The conditions noted are these: photolyzed in cells; cited from earlier work.
The conditions of data set [1]: cited from earlier work.
The conditions of data set [2]: acid-base indicator; cited from earlier work.
For data set [3] the following is noted: Mg.EGTA incl. monoprotonated form, pH 7.60, 0.1M ionic strength; assumed; read-out: apparent dissociation constant for Mg complex; cited from earlier work.
A short description of data set [4]: Ca2+ affinity by UV spectra during titration of EGTA or HEEDTA buffers. The format is binding. The conditions noted are these: after photolysis; Hill plot / equilibrium measurements; read-out: Kd (Ca2+) / affinity after photolysis. The protocol:
The titration was done at 22° C. with 10 mL of 100 mM KCl, 10 mM K-MOPS, 10 mM K2 H.HEEDTA, and 14 […] diazo-2 as starting materials, adjusting the pH to 7.24, recording the spectrum, and then discarding 1.0 mL of this solution and replacing with 1.0 mL of 100 mM KCl, 10 mM K.MOPS, 10 mM KCa.HEEDTA, 14 μM diazo-2, readjusting the pH to 7.24, and recording the spectra, which was then in 9 mM K2H.HEEDTA. Subsequent iterations to reach n mM KCa.HEEDTA, (10-n) mM HEEDTA, n=2-10, were done by discarding 10.0/(11-n) mL and replacing with equal volumes of the 10mM KCa.HEEDTA, 14 μM diazo-2 stock. After n=10 had been reached to give free Ca^2+ between 10^-5 and 10^-4 M, addition of 1 mM CaCl2 had no further effect on the spectrum. For clarity only six spectra are including in the figure, n=0, 2, 4, 6, 8, and 10. Each spectrum is labeled with the calculated free [Ca^2+ ] imposed by the HEEDTA buffer, assuming a log effective stability constant of 5.55 at pH 7.24.
The phenylacetate was produced by irradiating a 30 μM solution of diazo-2 in 100 mM KCl, 10 mM Tris.HCl, 10 mM K2 H.HEEDTA, pH 8.40, with Spectroline lamp at 365 nm to completion. The titration was then performed as in A but the pH was maintained at 8.40, at which the calculated log effective stability is constant for HEEDTA was 6.60.
Ca^2+ -binding constants for chelators before and after photolysis were determined by monitoring UV spectra during titration of EGTA or HEEDTA buffers to varying free Ca^2+ levels.
Either the ratio of, for example, [Ca.EGTA] to free [EGTA] was adjusted at a constant pH, or the pH was varied while [Ca.EGTA]=[EGTA]. These two approaches gave equivalent answers for pH>7 whenever directly tested, because of the pH insensitivity of BAPTA-like ligands (see FIG. 1 legend for more details). The apparent dissociation constants of Ca.EGTA and Ca.HEEDTA were calculated as described by R. Y. Tsien (1980); see also R. Y. Tsien, et al. (1986), S. R. Adams, et al. (1980), Grynkiewicz, et al., (1985), and Jackson, et al. (1987).

The nature of data set [5]: Ca2+ binding kinetics of photolyzed diazo-2 by competition with HEEDTA after flash photolysis. The source says:
Having determined the rate at which the high-affinity chelator was photochemically generated from diazo-2, the kinetics of Ca^2+ binding by the photolysis of diazo-2 was examined relying on the 1:1 competition between protons and Ca^2+ for the chelator HEEDTA, i.e.:
If diazo-2 is photolyzed in the presence of HEEDTA partially saturated with Ca^2+, the photo-generated Compound 3c would take some Ca^2+ away from HEEDTA. The newly freed HEEDTA would then take up some protons and lead to an alkalinization of the sample. The shift in Ca^2+ -binding equilibrium is thus visualized with an indicator like cresol red. Control experiments indicate that at HEEDTA buffer concentrations ≥2 mM, the intrinsic kinetics of the Ca^2+ -HEEDTA equilibrium was no longer limiting the speed of the final alkalinization.
It is noted that the solution first acidified owing to the formation and dissociation of the product carboxylic acid, but subsequently began realkalinizing as the newly formed product chelator competed with HEEDTA for Ca^2+. The time constant of the realkalinization was 2.8 ms (Table I). […]
FIG. 2B is a flash photolysis record of the kinetics of Ca^2+ uptake by photolyzed diazo-2. […] Monitoring the light transmission at 572 nm was performed as for A. Each small division of the ordinate corresponds to 3.4×10^-4 absorbance unit. […] As the photolyzed diazo-20 took Ca^2+ away from HEEDTA, the freed HEEDTA bound protons and thus alkalinized the solution, a process reflected by the increase in cresol red absorbance (i.e., decline in light transmission at 572 nm).
Kinetics of the conversion of diazo-2 and diazo-3 to the carboxylic acid products and the kinetics of Ca^2+ binding by photolyzed diazo-2 were measured by flash photolysis and pH monitoring. […]

Where “and” joins values, the source holds several entries; their conditions need not be identical. Equal entries are not always repeated. Where two headings read alike, the source gives them in different places.

Regarding `Cc1ccc(N(CC(=O)O)CC(=O)O)c(OCCOc2cc(C(O)c3cc4c(cc3[N+](=O)[O-])OCO4)ccc2N(CC(=O)O)CC(=O)O)c1` (stereo not drawn) [nitr-5], the “irradiation damage on photolysis in cells (in words)” value in the data set with cells is on record as “without noticeable irradiation damage”. Consider `Cc1ccc(N(CC(=O)O)CC(=O)O)c(OCCOc2cc(-c3c4cc(Cl)c(=O)cc-4oc4cc(O)c(Cl)cc34)ccc2N(CC(=O)O)CC(=O)O)c1` [Fluo-3], for which the “enhancement of fluorescence quantum yield by Ca2+ binding” value in data set [1] (Ca2+ binding) is “about 40 fold”. Further, in data set [1] (read-out: Kd (Ca2+) of fluorescent indicator), the Kd is 0.4 µM. Consider `Cc1cc(C2(c3ccc(O)c(C)c3)OS(=O)(=O)c3ccccc32)ccc1O` [Cresol red], for which the pKa (commonly the pH at which an ionisable group is half protonated) in data set [2] was 8.2. As to `O=C(O)CN(CCOCCOCCN(CC(=O)O)CC(=O)O)CC(=O)O` [EGTA, ethylenebis(oxyethylenenitrilo)tetraacetic acid], the Kd in data set [3] was 6000 µM. Take `Cc1ccc(N(CC(=O)O)CC(=O)O)c(OCCOc2cc(CC(=O)O)ccc2N(CC(=O)O)CC(=O)O)c1` [Compound 3c]: the Kd in data set [4] is ~0.073 µM and 0.073 µM. In addition, the “time constant of realkalinization” value in data set [5] (70 μM diazo-2, 2 mM HEEDTA half-saturated with Ca2+, free [Ca2+] 377 nM) came to 2.8 ms. In addition, in data set [5] (photolyzed diazo-2), the “koff, unimolecular rate constant for dissociation of Ca2+ complex” value worked out at 58 s⁻¹ and the “kon, bimolecular rate constant for binding of Ca2+” value was found to be 8e+08 M⁻¹ s⁻¹.
